# Results as given in PMC7571068, “Antiproliferative and Pro-Apoptotic Effect of Uvaol in Human Hepatocarcinoma HepG2 Cells by Affecting G0/G1 Cell Cycle Arrest, ROS Production and AKT/PI3K Signaling Pathway” (Molecules, 2020).
# What was measured:
# [1] = tested on: AKT/PI3K and ERK1/2/MAPK signaling pathways in WRL68 cells; test: Muse PI3K/MAPK Dual Pathway activation assay; assay type: cell-based, human; details: WRL68, IC50, 24 h
# Protocol: (§1) The Muse® PI3K/MAPK Dual Pathway activation kit purchased from Millipore (Billerica, MA, USA) was employed to examine both the PI3K and MAPK signaling pathways simultaneously using the Muse Cell Analyzer (Merck-Millipore®, Burlington, MA, USA). The protocol followed was performed as the manufacturer instructions. The samples (quadruplicates for three different populations of each cell line) were analyzed in the Muse^TM Cell Analyzer.
# [2] = tested on: AKT/PI3K and ERK1/2/MAPK signaling pathways in HepG2 cells; test: Muse PI3K/MAPK Dual Pathway activation assay; assay type: cell-based, human; details: HepG2, IC50, 24 h
# Protocol: as §1
# MDA-MB-231 line = tested on: MDA-MB-231 line; set-up: method as in PMID 25412049; details: cited from earlier work
# [3] = tested on: MDA-MB-231 (triple negative breast cancer); set-up: method as in PMID 21142067; details: MDA-MB-231, 10 and 100 µM; cited from earlier work
# MCF-7 cells = tested on: MCF-7 cells; set-up: method as in PMID 21142067; details: MCF-7, 10 and 100 µM; cited from earlier work
# WRL68 cells [4] = test: MTT cytotoxicity assay; assay type: cell-based; details: Homo sapiens, mean ± SEM (n = 9)
# Protocol: (§2) MTT assay was performed as described by Pérez-Jiménez et al.. Briefly, samples containing 200 µL cell suspension (1 × 10^4 cells/well) were cultured in 96 well plates, in triplicate of three populations of the both cell lines. Subsequent to adherence of the cells within 12 h of incubation, Uvaol was added to the wells at a concentration between 0–140 μg/mL and maintained during 24, 48 and 72 h. MTT was dissolved in the medium and added to the wells at a final concentration of 0.5 mg/mL. Following 2 h of incubation, the generated formazan was dissolved in DMSO. Absorbance was measured at 570 nm in a multiplate reader (Bio-tek®, Winooski, VT, USA). The concentrations that caused 20%, 50% and 80% of inhibition of cell viability (IC20, IC50 and IC80) were calculated following the formula: % […] = (A0 − AT)/A0·100, where A0 is the control absorbance (100% of cell viability) and AT is de absorbance of the incubated cells with the different concentrations of uvaol. OriginPro 8 (OriginLab Corporation, Northampton, MA, USA) was used to performance a dose-response analysis by the following formula: y=A1+ A2− A1/1+10^(Log x0−x)p
# (§3) In which Logx0 is the center of the curve, p the slope, A1 the lower asymptote and A2 the upper asymptote in the adjustment model described.
# WRL68 cells [5] = test: Muse Oxidative Stress kit, ROS production; assay type: cell-based, human; details: WRL68, IC50, 24 h
# Protocol: (§4) A total of 1.5 × 10^5 cells were seeded per well in 24-well plates for each cell line (quadruplicates for three different populations of each cell line). […] Negative control populations were incubated only with the appropriate culture medium. The samples were analyzed in the Muse^TM Cell Analyzer (Merck-Millipore®, Burlington, MA, USA). The method is based on the use of dihydroetide (DHE), a reagent capable of crossing the cell membrane and interacting with superoxide anions, a type of ROS. In this process, DHE oxidizes and forms the DNA intercalating agent ethidium bromide, detectable by its fluorescence emission. […] The Muse^TM Oxidative Stress kit purchased from Millipore (Billerica, MA, USA) was used for this purpose.
# HepG2 cells [6] = test: Muse Oxidative Stress kit, ROS production; assay type: cell-based, human; details: HepG2, IC50, 24 h
# Protocol: as §4
# HepG2 cells [7] = test: MTT cytotoxicity assay; assay type: cell-based, human; details: for IC20 / IC50 / IC80: Homo sapiens, mean ± SEM (n = 9)
# Protocol: as §2, §3
# lymphoma cells (U937) = tested on: lymphoma cells (U937); set-up: method as in PMID 21142067; details: U937, 10 and 100 µM; cited from earlier work
compound,measurement,setting,value
"C[C@H]1[C@H](C)CC[C@]2(CO)CC[C@]3(C)C(=CC[C@@H]4[C@@]5(C)CC[C@H](O)C(C)(C)[C@@H]5CC[C@]43C)[C@H]12 [uvaol, urs-12-ene-3,28-diol]",change in percentage of cells in which only ERK1/2/MAPK was activated,[1],not altered
same,decrease in cells that only activated the AKT/PI3K pathway,[1],22%
same,increase in cells that activated the dual pathway (MAPK and PI3K),[1],25%
same,net balance: activation of the ERK1/2/MAPK signaling pathway,[1],25%
same,net balance: modification of the PI3K pathway,[1],no modification
same,change in percentage of cells that only activated ERK1/2/MAPK,[2],not altered
same,decrease in cells that only activated AKT/PI3K,[2],25%
same,increase in cells with activated dual pathway (MAPK and PI3K),[2],9%
same,net balance: increase of ERK1/2/MAPK signaling pathway,[2],9%
same,net balance: inhibition of AKT/PI3K signaling pathway,[2],16%
same,changes in cell cycle progression,MDA-MB-231 line,did not produce changes in the progression of the cycle
same,induction of apoptosis,[3],did not show this effect
same,induction of apoptosis,MCF-7 cells,did not show this effect
same,IC20,"WRL68 cells [4]; WRL68, 24 h exposure",27.6 ± 2.9 µg/mL
same,IC50,"WRL68 cells [4]; WRL68, 24 h exposure",54.3 µg/mL
same,IC20,"WRL68 cells [4]; WRL68, 48 h exposure",13.3 ± 0.8 µg/mL
same,IC50,"WRL68 cells [4]; WRL68, 48 h exposure",35.9 ± 0.7 µg/mL
same,IC80,"WRL68 cells [4]; WRL68, 48 h exposure",79.8 ± 0.6 µg/mL
same,IC20,"WRL68 cells [4]; WRL68, 72 h exposure",6.8 ± 0.6 µg/mL
same,IC50,"WRL68 cells [4]; WRL68, 72 h exposure",19.5 ± 1.1 µg/mL
same,IC80,"WRL68 cells [4]; WRL68, 72 h exposure",47.2 ± 4.3 µg/mL
same,change in ROS levels vs control,WRL68 cells [5],without significant differences
same,change in percentage of cells expressing ROS vs control,HepG2 cells [6],significant decrease
same,IC50 in control cells (WRL68) relative to tumor cells (HepG2),HepG2 cells [7]; 24 h IC50 WRL68 vs HepG2,more than twice
same,IC20,"HepG2 cells [7]; HepG2, 24 h exposure",8.2 ± 1.8 µg/mL
same,IC50,"HepG2 cells [7]; HepG2, 24 h exposure",25.2 µg/mL
same,IC20,"HepG2 cells [7]; HepG2, 48 h exposure",6.4 ± 0.4 µg/mL
same,IC50,"HepG2 cells [7]; HepG2, 48 h exposure",20 ± 0.3 µg/mL
same,IC80,"HepG2 cells [7]; HepG2, 48 h exposure",61.7 ± 5.3 µg/mL
same,IC20,"HepG2 cells [7]; HepG2, 72 h exposure",4 ± 0.2 µg/mL
same,IC50,"HepG2 cells [7]; HepG2, 72 h exposure",14.1 ± 1 µg/mL
same,IC80,"HepG2 cells [7]; HepG2, 72 h exposure",39.2 ± 2.4 µg/mL
same,induction of apoptosis,lymphoma cells (U937),induced apoptosis
